# From US12351570B2 (MERCK PATENT GMBH, priority 2018, dated 2025)
# Tested on: MDA-MB-231 cells
# Experiment: Extracellular lactate production inhibition after 4 h, MDA-MB-231
# Conditions: Homo sapiens, MDA-MB-231
row,Compound,IC50 [µM]
1,"COc1ccc(S(=O)(=O)Nc2ccc(F)cc2C#Cc2ccc(C(=O)NC#N)nc2)c2ccccc12 [Compound 256, N-cyano-5-{2-[5-fluoro-2-(4-methoxynaphthalene-1-sulfonamido)-phenyl]ethynyl}pyridine-2-carboxamide]",1 to 100
2,"COc1ccc(S(=O)(=O)Nc2ccccc2C#Cc2ccc(C(N)=O)cc2)c2ccccc12 [Compound 261, 4-[2-(4-Methoxy-naphthalene-1-sulfonylamino)-phenylethynyl]-benzamide]",1 to 100
3,"Cc1cnc2c(S(=O)(=O)Nc3ccccc3C#Cc3ccc(C(=O)O)nc3)cccc2c1 [Compound 262, 5-[2-(3-Methyl-quinoline-8-sulfonyl-amino)-phenylethynyl]-pyridine-2-carboxylic acid]",0.1 to 1
4,"Cc1ccnc2c(S(=O)(=O)Nc3ccccc3C#Cc3ccc(C(=O)O)nc3)cccc12 [Compound 264, 5-[2-(4-Methyl-quinoline-8-sulfonyl-amino)-phenylethynyl]-pyridine-2-carboxylic acid]",0.1 to 1
5,"Cc1cc(S(=O)(=O)Nc2ccccc2C#Cc2ccc(C(=O)O)nc2)c2ncccc2c1 [Compound 265, 5-[2-(6-Methyl-quinoline-8-sulfonyl-amino)-phenylethynyl]-pyridine-2-carboxylic acid]",0.1 to 1
6,"Cc1ccc2cccc(S(=O)(=O)Nc3ccccc3C#Cc3ccc(C(=O)O)nc3)c2n1 [Compound 267, 5-[2-(2-Methyl-quinoline-8-sulfonylamino)-phenylethynyl]-pyridine-2-carboxylic acid]",0.1 to 1
7,"COc1cc(C)c(S(=O)(=O)Nc2ccccc2C#Cc2ccc(C(=O)O)nc2)c(C)c1C [Compound 277, 5-{2-[2-(4-methoxy-2,3,6-trimethyl-benzenesulfonamido)phenyl]ethynyl}-pyridine-2-carboxylic acid]",0.1 to 1
8,"O=C(O)c1ccc(C#Cc2ccccc2NS(=O)(=O)c2cccn3ccnc23)cn1 [Compound 278, 5-[2-(Imidazo[1,2-a]pyridine-8-sulfonyl-amino)-phenylethynyl]-pyridine-2-carboxylic acid]",1 to 100
9,"O=C(O)c1ncc(C#Cc2ccccc2NS(=O)(=O)c2cccc3ccccc23)cc1F [Compound 279, 3-fluoro-5-{2-[2-(naphthalene-1-sulfon-amido)phenyl]ethynyl}pyridine-2-carboxylic acid]",1 to 100
10,"O=C(O)c1ccc(C#Cc2cc(Cl)ccc2NS(=O)(=O)c2ccc(Cl)cc2)cn1 [Compound 280, 5-{2-[5-chloro-2-(4-chlorobenzene-sulfonamido)phenyl]ethynyl}pyridine-2-carboxylic acid]",1 to 100
11,"O=C(O)c1ncc(C#Cc2ccccc2NS(=O)(=O)c2cccc3ccccc23)cc1C(F)(F)F [Compound 283, 5-{2-[2-(naphthalene-1-sulfon-amido)phenyl]ethynyl}-3-(trifluoro-methyl)pyridine-2-carboxylic acid]",1 to 100
12,"CCOc1ccc(S(=O)(=O)Nc2ccccc2C#Cc2ccc(C(=O)O)nc2)c2ccccc12 [Compound 284, 5-{2-[2-(4-ethoxynaphthalene-1-sulfonamido)phenyl]ethynyl}pyridine-2-carboxylic acid]",0.01 to 0.1
13,"O=C(O)c1ccc(C#Cc2ccc(F)cc2NS(=O)(=O)c2cccc3ccccc23)cn1 [Compound 285, 5-{2-[4-fluoro-2-(naphthalene-1-sulfonamido)phenyl]ethynyl}pyridine-2-carboxylic acid]",0.1 to 1
14,"O=C(O)c1ccc(C#Cc2ccccc2NS(=O)(=O)c2ccc3oc4ccccc4c3c2)cn1 [Compound 286, 5-[2-(2-{8-oxatricyclo[7.4.0.0^2,7]trideca-1(9),2(7),3,5,10,12-hexaene-4-sulfonamido}phenyl)ethynyl]pyridine-2-carboxylic acid]",0.1 to 1
15,"Cc1cc(S(=O)(=O)Nc2ccccc2C#Cc2ccc(C(=O)O)nc2)c2cc(C)ncc2c1 [Compound 288, 5-{2-[2-(3,7-dimethylisoquinoline-5-sulfonamido)phenyl]ethynyl}pyridine-2-carboxylic acid]",1 to 100
16,"Cc1ccc2nsnc2c1S(=O)(=O)Nc1ccccc1C#Cc1ccc(C(=O)O)nc1 [Compound 290, 5-{2-[2-(5-methyl-2,1,3-benzothia-diazole-4-sulfonamido)phenyl]-ethynyl}pyridine-2-carboxylic acid]",1 to 100
17,"O=C(O)c1ccc(C#Cc2ccccc2NS(=O)(=O)c2ccc(-c3ccccc3)cc2)cn1 [Compound 291, 5-[2-(2-{[1,1′-biphenyl]-4-sulfonamido}phenyl)ethynyl]pyridine-2-carboxylic acid]",0.01 to 0.1
18,"O=C(O)c1ccc(C#Cc2ccccc2NS(=O)(=O)c2cccc3nsnc23)cn1 [Compound 292, 5-{2-[2-(2,1,3-benzothiadiazole-4-sulfonamido)phenyl]ethynyl}pyridine-2-carboxylic acid]",1 to 100
19,"Cc1ccccc1-c1ccc(S(=O)(=O)Nc2ccccc2C#Cc2ccc(C(=O)O)nc2)cc1 [Compound 293, 5-[2-(2-{2′-methyl-[1,1′-biphenyl]-4-sulfonamido}phenyl)ethynyl]pyridine-2-carboxylic acid]",0.1 to 1
20,"O=C(O)c1ccc(C#Cc2ccccc2NS(=O)(=O)c2cc(F)cc3cccnc23)cn1 [Compound 294, 5-{2-[2-(6-fluoroquinoline-8-sulfonamido)phenyl]ethynyl}pyridine-2-carboxylic acid]",0.1 to 1
21,"CC(C)Oc1ccc(S(=O)(=O)Nc2ccccc2C#Cc2ccc(C(=O)O)nc2)c2ccccc12 [Compound 295, 5-(2-{2-[4-(propan-2-yloxy)naphthalene-1-sulfonamido]phenyl}ethynyl)pyridine-2-carboxylic acid]",0.01 to 0.1
22,"Cn1ccc2cccc(S(=O)(=O)Nc3ccccc3C#Cc3ccc(C(=O)O)nc3)c21 [Compound 296, 5-{2-[2-(1-methyl-1H-indole-7-sulfonamido)phenyl]ethynyl}pyridine-2-carboxylic acid]",1 to 100
23,"O=C(O)c1ccc(C#Cc2ccccc2NS(=O)(=O)c2ccc3occc3c2)cn1 [Compound 297, 5-{2-[2-(1-benzofuran-5-sulfonamido)phenyl]ethynyl}pyridine-2-carboxylic acid]",1 to 100
24,"COc1ccc(S(=O)(=O)Nc2ccccc2C#Cc2ccc(C(=O)O)nc2)c(OC)c1 [Compound 299, 5-{2-[2-(2,4-dimethoxybenzenesulfon-amido)phenyl]ethynyl}pyridine-2-carboxylic acid]",1 to 100

# More lines, now with the values ahead:
row,IC50 [µM],Compound
1,0.1 to 1,"COc1cc(S(=O)(=O)Nc2ccccc2C#Cc2ccc(C(=O)O)cc2)cc2ccccc12 [Compound 258, 4-[2-(4-Methoxy-naphthalene-2-sulfonylamino)-phenylethynyl]-benzoic acid]"
2,1 to 100,"COc1ccc(S(=O)(=O)Nc2ccccc2C#Cc2ccc(C(=O)O)cc2)cc1OC [Compound 263, 4-[2-(3,4-Dimethoxy-benzenesulfonyl-amino)-phenylethynyl]-benzoic acid]"
3,0.01 to 0.1,"O=C(O)c1ccc(C#Cc2ccccc2NS(=O)(=O)c2cccc3c(Cl)ccnc23)cn1 [Compound 266, 5-[2-(4-Chloro-quinoline-8-sulfonylamino)-phenylethynyl]-pyridine-2-carboxylic acid]"
4,1 to 100,"O=C(O)c1ccc(C#Cc2cc(Cl)ccc2NS(=O)(=O)c2ccc(Cl)cc2)cc1 [Compound 269, 4-[5-Chloro-2-(4-chloro-benzenesulfonylamino)-phenylethynyl]-benzoic acid, reference compound]"
5,0.1 to 1,"O=C(O)c1ccc(C#Cc2ccccc2NS(=O)(=O)c2cccc3cc(Cl)cnc23)cc1 [Compound 270, 4-[2-(3-Chloro-quinoline-8-sulfonyl-amino)-phenylethynyl]-benzoic acid]"
6,0.1 to 1,"O=C(O)c1ccc(C#Cc2ccccc2NS(=O)(=O)c2cccc3cc(Cl)cnc23)cn1 [Compound 271, 5-[2-(3-Chloro-quinoline-8-sulfonyl-amino)-phenylethynyl]-pyridine-2-carboxylic acid]"
7,1 to 100,"O=C(O)c1ccc(C#Cc2ccccc2NS(=O)(=O)c2cccc3ncc(Cl)cc23)cc1 [Compound 272, 4-[2-(3-Chloro-quinoline-5-sulfonyl-amino)-phenylethynyl]-benzoic acid]"
8,1 to 100,"O=C(O)c1ccc(C#Cc2ccccc2NS(=O)(=O)c2cc(Cl)c(Cl)s2)cc1 [Compound 275, 4-{2-[2-(4,5-dichlorothiophene-2-sulfonamido)phenyl]ethynyl}benzoic acid]"
9,1 to 100,"O=C(O)c1ccc(C#Cc2ccccc2NS(=O)(=O)c2cc3ccccc3s2)cc1 [Compound 276, 4-{2-[2-(1-benzothiophene-2-sulfonamido)phenyl]ethynyl}benzoic acid]"
10,0.1 to 1,"O=C(O)c1ccc(C#Cc2ccccc2NS(=O)(=O)c2cc3cc(Cl)ccc3s2)cc1 [Compound 281, 4-{2-[2-(5-chloro-1-benzothiophene-2-sulfonamido)phenyl]ethynyl}benzoic acid]"
11,1 to 100,"CSc1nccc(-c2ccc(S(=O)(=O)Nc3ccccc3C#Cc3ccc(C(=O)O)cc3)s2)n1 [Compound 282, 4-[2-(2-{5-[2-(methylsulfanyl)pyrimidin-4-yl]thiophene-2-sulfonamido}phenyl)-ethynyl]benzoic acid]"
12,1 to 100,"COc1ccc(S(=O)(=O)Nc2ccccc2C#Cc2ccc(C(=O)O)nc2)c(Cl)c1 [Compound 287, 5-{2-[2-(2-chloro-4-methoxybenzene-sulfonamido)phenyl]ethynyl}pyridine-2-carboxylic acid]"
13,0.1 to 1,"O=C(O)c1ccc(C#Cc2ccccc2NS(=O)(=O)c2cccc3c(Cl)cccc23)cn1 [Compound 289, 5-{2-[2-(5-chloronaphthalene-1-sulfonamido)phenyl]ethynyl}pyridine-2-carboxylic acid]"
14,0.01 to 0.1,"O=C(O)c1ccc(C#Cc2ccccc2NS(=O)(=O)c2cccc3c(Cl)c(Cl)cnc23)cn1 [Compound 298, 5-{2-[2-(3,4-dichloroquinoline-8-sulfonamido)phenyl]ethynyl}pyridine-2-carboxylic acid]"

# Same assay, conditions: Table 3; group class A-D; the table does not say which assay or cell line ("the assays described above")
row,Compound,IC50 [µM]
1,"COc1ccc(S(=O)(=O)Nc2ccc(F)cc2C#Cc2ccc(C(=O)NS(C)(=O)=O)nc2)c2ccccc12 [Compound 255, 4-Methoxy-naphthalene-1-sulfonic acid [4-fluoro-2-(6-methanesulfonyl-aminocarbonyl-pyridin-3-ylethynyl)-phenyl]-amide]",1 to 100
